ChEMBL document CHEMBL1201862, “PubChem BioAssay data set” (2004)
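Results reflect a 48-hour exposure of cells in 96-well plates to compound at five concentrations. GI50 marks 50% less growth.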 The source made the active and inactive calls. Rule as the data show it: active = GI50 up to about 1.1 µM and inactive = higher.

Key:
Experiment in all cases: NCI anticancer screen, dose series, 48 h
Hs-578T = system: Hs-578T
OVCAR-3 = system: OVCAR-3
RPMI-8226 = system: RPMI-8226
SR = system: SR
Malme-3M = system: Malme-3M
ACHN = system: ACHN
T47D = system: T47D
BT-549 = system: BT-549
NCI-H460 = system: NCI-H460
MDA-MB-231 = system: MDA-MB-231
DU-145 = system: DU-145
NCI-H522 = system: NCI-H522
HCT-15 = system: HCT-15
OVCAR-8 = system: OVCAR-8
K562 = system: K562
A498 = system: A498
PC-3 = system: PC-3
NCI/ADR-RES = system: NCI/ADR-RES
HL-60 = system: HL-60

SMILES	GI50 (Hs-578T)	GI50 (OVCAR-3)	GI50 (RPMI-8226)	GI50 (SR)	GI50 (Malme-3M)	GI50 (ACHN)	GI50 (T47D)	GI50 (BT-549)	GI50 (NCI-H460)	GI50 (MDA-MB-231)	GI50 (DU-145)	GI50 (NCI-H522)	GI50 (HCT-15) [µM]	GI50 (OVCAR-8)	GI50 (K562)	GI50 (A498)	GI50 (PC-3)	GI50 (NCI/ADR-RES)	GI50 (HL-60)
CC1=C(Nc2c(C)cc(O)cc2O)C(=O)C=c2oc3c(c21)C(C)=C(Nc1c(C)cc(O)cc1O)C(=O)C=3	32 µM (inactive)	15.6 µM (inactive)	28.8 µM (inactive)	0.0313 µM (active)	21.9 µM (inactive)	> 100 µM (inactive)	52.4 µM (inactive)	32.9 µM (inactive)	30.3 µM (inactive)	36.6 µM (inactive)	54.3 µM (inactive)	20.1 µM (inactive)	46.6	38 µM (inactive)	34 µM (inactive)	> 100 µM (inactive)	24.2 µM (inactive)	> 100 µM (inactive)	
COC(=O)/C=C\C(C#N)(C#N)/N=C/c1sccc1C	7.78 µM (inactive)	5.05 µM (inactive)	5.04 µM (inactive)	2.36 µM (inactive)	3.18 µM (inactive)	1.87 µM (inactive)	2.62 µM (inactive)	3.15 µM (inactive)	16.4 µM (inactive)	0.589 µM (active)	7.53 µM (inactive)	0.268 µM (active)	1.96	2.47 µM (inactive)	3.3 µM (inactive)	14.8 µM (inactive)	7.6 µM (inactive)	11.8 µM (inactive)	1.88 µM (inactive)
COC(=O)/C(=N/NC(N)=O)C(C(=O)C(=O)Nc1ccc(C)cc1)c1nc2ccc(C(=O)c3ccccc3)cc2nc1O (stereo not given)	67 µM (inactive)	> 100 µM (inactive)		1.53 µM (inactive)	> 100 µM (inactive)	> 100 µM (inactive)	41.9 µM (inactive)	> 100 µM (inactive)	> 100 µM (inactive)	> 100 µM (inactive)	> 100 µM (inactive)	50.5 µM (inactive)	> 100	75.2 µM (inactive)		18.9 µM (inactive)	> 100 µM (inactive)	39.3 µM (inactive)	67.9 µM (inactive)
CCOC(=O)C(C(=O)OCC)=C1SC(=N\c2ccccc2)/C(=N/c2ccccc2)N1c1ccccc1	90.8 µM (inactive)	35.8 µM (inactive)	> 100 µM (inactive)	> 100 µM (inactive)	> 100 µM (inactive)	64 µM (inactive)	> 100 µM (inactive)	> 100 µM (inactive)	> 100 µM (inactive)	> 100 µM (inactive)	> 100 µM (inactive)	76.6 µM (inactive)	> 100	> 100 µM (inactive)	4.48 µM (inactive)	> 100 µM (inactive)	58.7 µM (inactive)	> 100 µM (inactive)	> 100 µM (inactive)
CC(=O)NNc1nc(C)c(C(/C=C/c2ccccc2O)=N/N=C(N)N)s1	> 100 µM (inactive)	> 100 µM (inactive)	> 100 µM (inactive)	> 100 µM (inactive)	> 100 µM (inactive)	> 100 µM (inactive)	> 100 µM (inactive)	> 100 µM (inactive)	> 100 µM (inactive)	> 100 µM (inactive)	> 100 µM (inactive)	> 100 µM (inactive)	> 100	> 100 µM (inactive)	> 100 µM (inactive)	> 100 µM (inactive)	> 100 µM (inactive)	> 100 µM (inactive)	> 100 µM (inactive)
CCOC(=O)c1c(N2CCOCC2)[nH]c(=O)c(C(c2cccs2)c2c(O)c(C(=O)OCC)c(N3CCOCC3)[nH]c2=O)c1O	> 100 µM (inactive)	> 100 µM (inactive)	> 100 µM (inactive)	> 100 µM (inactive)	> 100 µM (inactive)	> 100 µM (inactive)	> 100 µM (inactive)	> 100 µM (inactive)	> 100 µM (inactive)	> 100 µM (inactive)	> 100 µM (inactive)	> 100 µM (inactive)	> 100	> 100 µM (inactive)	> 100 µM (inactive)	> 100 µM (inactive)	> 100 µM (inactive)	> 100 µM (inactive)	
CN1CCC23c4c5ccc(Oc6nnnn6-c6ccccc6)c4OC2c2[nH]c4ccccc4c2CC3(O)C1C5 (stereo not given)	9.25 µM (inactive)	9.4 µM (inactive)	2.22 µM (inactive)	1.64 µM (inactive)	1.67 µM (inactive)	1.74 µM (inactive)	6.71 µM (inactive)	16.5 µM (inactive)	1.85 µM (inactive)	1.81 µM (inactive)	7.16 µM (inactive)	2 µM (inactive)	2.43	2.86 µM (inactive)	1.81 µM (inactive)	2.4 µM (inactive)	3.68 µM (inactive)	5.37 µM (inactive)	1.81 µM (inactive)
COC(=O)C1(C#N)C(C)(C)N=C(c2ccccc2)C12CCCCC2 (stereo not given)	> 100 µM (inactive)	> 100 µM (inactive)	63.4 µM (inactive)	14.7 µM (inactive)	> 100 µM (inactive)		> 100 µM (inactive)	> 100 µM (inactive)	> 100 µM (inactive)	> 100 µM (inactive)	> 100 µM (inactive)	> 100 µM (inactive)	> 100	> 100 µM (inactive)	59.7 µM (inactive)	> 100 µM (inactive)	58.7 µM (inactive)	> 100 µM (inactive)	45.4 µM (inactive)
Cc1ccc([C@H]2CC(=O)C[C@H](c3ccc(C)cc3)C23C(=O)c2ccccc2C3=O)cc1	19.9 µM (inactive)	41.9 µM (inactive)	43.2 µM (inactive)	13.2 µM (inactive)	46.7 µM (inactive)	63.4 µM (inactive)	> 100 µM (inactive)	34.3 µM (inactive)	47.2 µM (inactive)	54.7 µM (inactive)	> 100 µM (inactive)	3.23 µM (inactive)	34.8	31 µM (inactive)	23.3 µM (inactive)	> 100 µM (inactive)	14.9 µM (inactive)	10.1 µM (inactive)	11 µM (inactive)
COC(=O)NCCc1n[nH]c2c1C(=O)C=C(Nc1ccccc1)C2=O	36.7 µM (inactive)	3.72 µM (inactive)	19.1 µM (inactive)	10.9 µM (inactive)	12.7 µM (inactive)	32.4 µM (inactive)	30.1 µM (inactive)	23.4 µM (inactive)	32.4 µM (inactive)	25.9 µM (inactive)	47.5 µM (inactive)	13.5 µM (inactive)	22.4	17.9 µM (inactive)	28.2 µM (inactive)	47.2 µM (inactive)	30.3 µM (inactive)	28.5 µM (inactive)	19.2 µM (inactive)
O=[N+]([O-])c1cccc2nc3ccccc3c(NCCCCCNc3c4ccccc4nc4cccc([N+](=O)[O-])c34)c12	0.0879 µM (active)	0.075 µM (active)	0.00828 µM (active)	0.00271 µM (active)	0.129 µM (active)	0.0162 µM (active)	0.179 µM (active)	0.159 µM (active)	0.0296 µM (active)	0.0269 µM (active)	0.0211 µM (active)	0.0859 µM (active)	0.0171	0.0492 µM (active)	0.00466 µM (active)	0.111 µM (active)	0.102 µM (active)	0.168 µM (active)	0.00745 µM (active)
CC(=O)Oc1ccc(/C=C/C(=O)O[C@H]2CCCC[C@@H]2OC(=O)/C=C/c2ccc(OC(C)=O)c(OC(C)=O)c2)cc1OC(C)=O	6.21 µM (inactive)	4.74 µM (inactive)	4.07 µM (inactive)	4.34 µM (inactive)	15.6 µM (inactive)	5.83 µM (inactive)	11.5 µM (inactive)	13.2 µM (inactive)	3.85 µM (inactive)	17 µM (inactive)	13.3 µM (inactive)	2.81 µM (inactive)	5.13	8.61 µM (inactive)	5.75 µM (inactive)	18.5 µM (inactive)	8.28 µM (inactive)	19.2 µM (inactive)	
CCc1n[nH]c(=O)n1N1C(=O)CCC1=O	> 100 µM (inactive)	> 100 µM (inactive)	> 100 µM (inactive)	> 100 µM (inactive)	> 100 µM (inactive)	> 100 µM (inactive)	> 100 µM (inactive)	> 100 µM (inactive)	> 100 µM (inactive)	> 100 µM (inactive)	> 100 µM (inactive)	> 100 µM (inactive)	> 100	> 100 µM (inactive)	> 100 µM (inactive)	> 100 µM (inactive)	> 100 µM (inactive)	> 100 µM (inactive)	
Clc1ccc(/C(=C\c2ccccc2)Cn2ccnc2)cc1	> 100 µM (inactive)		22.3 µM (inactive)	3.46 µM (inactive)	10.2 µM (inactive)	16.6 µM (inactive)	19.2 µM (inactive)	14.4 µM (inactive)	20.1 µM (inactive)	11.1 µM (inactive)	20.1 µM (inactive)	8.15 µM (inactive)	17.8	16.1 µM (inactive)	9.93 µM (inactive)	15.3 µM (inactive)	11.5 µM (inactive)	14.6 µM (inactive)	14.1 µM (inactive)
COc1cc2cc(C(=O)N3CC(COS(C)(=O)=O)c4c3cc(N)c3ccccc43)[nH]c2c(OC)c1OC (stereo not given)	0.252 µM (active)	0.0404 µM (active)	0.0175 µM (active)	< 0.01 µM (active)		< 0.01 µM (active)	0.0385 µM (active)	0.0187 µM (active)	< 0.01 µM (active)	< 0.01 µM (active)	0.0154 µM (active)	0.0146 µM (active)	< 0.0206	0.0136 µM (active)		0.0219 µM (active)	0.0422 µM (active)	0.0123 µM (active)	< 0.01 µM (active)
